In PMC7118210 (Frontiers in Pharmacology, 2020):

Experiments:
[1] = Multiple-dose pharmacokinetics in dogs; assay type: in vivo, Beagle dogs
Protocol: The optimal volume and activity in unit volume of enzyme solution [0.2 M acetic acid/water solution: 0.2 M ammonium acetate/water solution, 15:35 (v/v)] were determined through a pretest of the enzyme (rat plasma, 10 μl, 10 U μl^-1; dog plasma, 10 μl, 10 U μl^-1; human plasma, 20 μl, 20 U μl^-1; human urine, 10 μl, 10 U μl^-1). After enzyme incubation, 10 μl of IS solution was added to the plasma and urine samples (2 μg ml^-1 quercetin 3-β-D-glucoside for rat and dog plasma; 583 ng ml^-1 naringin-D4 and 160 ng ml^-1 naringenin-D4 for human plasma; and 9,710 ng ml^-1 naringin-D4 and 6,000 ng ml^-1 naringenin-D4 for human urine). To each fecal sample, 9-fold methanol-normal saline (2:1, v/v) was added, mixed (18,000 rpm, 15 min) by vortexing and centrifuged (10 min, 9,000 rpm, 4°C). Next, 10 μl IS solution (971 ng ml^-1 naringin-D4 and 600 ng ml^-1 naringenin-D4) was added to the supernatants of feces (200 μl) without enzyme incubation. […] The solid material was dissolved with acetonitrile-water (1:1, v/v) and injected into the ultra high-performance liquid chromatography coupled with triple quadrupole mass spectrometry (UHPLC/MS/MS) system as described below. The analysis of nonclinical and clinical samples was performed with a UHPLC/MS/MS system that consisted of a Shimadzu Nexera X2 ultra high-performance liquid chromatography (UHPLC) (Shimadzu Corp., Kyoto, Japan) coupled with an AB Sciex API4000 triple-quadrupole mass spectrometry (MS/MS) system (AB Sciex, Foster City, CA, USA) equipped with an electrospray ionization source and controlled by Analyst (v. 1.6.2) software. […] The injection volume was 10 μl with the flow rate of 0.3 ml min^-1 for plasma, and 0.4 ml min^-1 for urine and feces. The compounds were detected by multiple reaction monitoring in the negative ion electrospray mode. The electrospray source conditions were as follows: ion source gas1 30 psi, ion source gas2 60 psi, curtain gas 20 psi, collisionally activated dissociation (CAD) gas 8 psi, temperature 500°C, and ion spray voltage −4,500 V. Zero air was used for ion source gas1 and ion source gas2 and nitrogen for curtain gas and CAD gas. […] All pharmacokinetic and excretion parameters were expressed as mean ± standard deviation (SD). All mean and SD values were reported to three significant figures. The pharmacokinetic parameters were calculated using the Phoenix WinNonlin software (Version 6.4, Pharsight Corp., Cary, NC, USA) and compared using the Student's t-test (p < 0.05) in SPSS 18.0 (SPSS Inc., Chicago, IL, USA). […] For the multiple-dose studies, pharmacokinetic parameters included the mean plasma level at steady state, Tmax, t1/2, the percent fluctuation, and the accumulation index (Table 3). […] In addition, we compared the pharmacokinetic parameters obtained from males and females (Tables 4–6).

[2] = design: method as in Liu M. et al., 2012; conditions: dogs, ref Liu M. et al., 2012, cited from earlier work
[3] = naringin 12.4 mg kg^-1 multiple dose, dog, female
[4] = naringin 12.4 mg kg^-1 multiple dose, dog, male
[5] = naringin 12.4 mg kg^-1 p.o. three times a day, multiple dose, dog

| Structure (SMILES) | accumulation in multiple-dose study ([1]; dogs) | CavSS [1, 3] | Fluctuation [1, 3] | CavSS [1, 4] | Fluctuation [1, 4] | CavSS [1, 5] | Fluctuation ([1]; naringin 12.4 mg kg^-1 p.o. three times a day, multiple dose, dog, (CmaxSS−CminSS)/CavSS×100%) | cumulative excretion percentage ([2]; in the forms of naringin, naringenin, and 4-hydroxyphenylpropionic acid) | time within which excreted [2] | accumulation in multiple-dose study ([1]; dog, in vivo) |
| --- | --- | --- | --- | --- | --- | --- | --- | --- | --- | --- |
| C[C@@H]1O[C@@H](O[C@H]2[C@H](Oc3cc(O)c4c(c3)O[C@H](c3ccc(O)cc3)CC4=O)O[C@H](CO)[C@@H](O)[C@@H]2O)[C@H](O)[C@H](O)[C@H]1O [naringin, Naringin] | no significant accumulation | 22.1 ± 3.41 ng/mL | 370 ± 119% | 15.1 ± 2.53 ng/mL | 242 ± 8.10% | 18.6 ± 4.68 ng/mL | 306 ± 103% | 60% | ≤ 24 h | – |
| O=C1C[C@@H](c2ccc(O)cc2)Oc2cc(O)cc(O)c21 [naringenin, Naringenin] | – | 50.7 ± 16.1 ng/mL | – | 49 ± 10.4 ng/mL | – | 49.8 ± 12.2 ng/mL | – | – | ≤ 24 h | no significant accumulation |
